Reference: patent publication US11504379B2, “Amide compound, and Pin1 inhibitor, therapeutic agent for inflammatory diseases and therapeutic agent for cancer that use the same” (Hiroshima University, priority 2017, dated 2022)

Experiments:
Pin1 = target: T1, Pin1 (Homo sapiens, UniProt Q13526); assay: Cell-based Pin1 inhibition assay with AMPK phosphorylation level as index (293T cells); parameters: key: +++: a higher level of AMPK phosphorylation is promoted, as compared with C1; ++: a similar level of AMPK phosphorylation is promoted, as compared with C1; +: a lower level of AMPK phosphorylation is promoted, as compared with C1; −: no or almost no promotion is found in AMPK phosphorylation; conditions: compound at 100 μM for 30 minutes, then 10 mM 2-DG for one hour, pAMPK blot compared with C1
T1 construct: endogenous in cells; host or cells: 293T cells
T1 sequence (Q13526 whole entry): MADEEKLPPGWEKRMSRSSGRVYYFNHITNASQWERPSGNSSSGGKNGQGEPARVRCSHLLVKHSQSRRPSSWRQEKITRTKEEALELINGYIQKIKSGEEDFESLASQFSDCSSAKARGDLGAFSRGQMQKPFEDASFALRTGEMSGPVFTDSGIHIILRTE
Protocol: To evaluate the inhibitory activity of each compound synthesized in Example 1 against the function of Pin1, a cell-based assay was performed according to the method previously developed by the inventors (Yusuke Nakatsu et al., Journal of Biological Chemistry, 2015, Vol. 290, No. 40, pp. 24255-24266), in which the phosphorylation level of AMPK (AMP-activated protein kinase), a protein whose phosphorylation is inhibited by Pin1, was examined as an index.
Briefly, 293T cells were plated on a collagen-coated 24-well plate. Forty-eight hours later, each compound synthesized in the preceding example (at 100 μM) was added to the plate, and the plate was left to stand in an incubator for 30 minutes. Subsequently, 10 mM 2-DG was added to the plate, and one hour later, each sample was collected with a buffer containing mercaptoethanol and SDS.
SDS-PAGE and blotting were performed, and blocking was then performed with 3% BSA for 1 hour, according to conventional protocols. Subsequently, a pAMPK antibody (Cell Signaling; diluted 1:2000 in Can Get Signal Solution 1, Toyobo) as a primary antibody, and an HRP-linked anti rabbit IgG (GE Healthcare; diluted 1:4000 in Can Get Signal Solution 2, Toyobo) as a secondary antibody were allowed to react at ambient temperature for 1 hour prior to detection.
The inhibitory activity against the function of Pin1 was evaluated by comparing the inhibition levels between each compound and a known Pin1 inhibitor, C1, as indicated below: […]

[1] = tested on: mice with induction of colitis; conditions: oral administration; cited from earlier work
[2] = tested on: non-alcoholic steatohepatitis (NASH) model mice (HFDT); assay: NASH treatment study in HFDT-fed NASH model mice; conditions: for increase in liver weight / blood ALT (GPT) value, index of liver inflammation: HFDT NASH mice, 8 weeks; for increase in liver weight: FIG. 1 (A); for blood ALT (GPT) value, index of liver inflammation: FIG. 1 (B)
Protocol: Animal experiments were performed using non-alcoholic steatohepatitis (NASH) model mice to test the compounds according to the present invention for the therapeutic effect on NASH.
NASH model mice (hereinafter referred to as “NASH mice”) were produced by feeding a high-fat diet containing trans fatty acids (HFDT) to individual male laboratory mice (C57BL/6J) for 8 weeks. […] In addition, a normal diet was given to individual male laboratory mice (C57BL/6J) for 8 weeks to prepare control mice.

DU145 cells = assay: Cancer treatment study, DU145 tumors implanted in nude mice; format: in vivo, nude mice (BALB/c-slc-nu/nu mice); conditions: intraperitoneal 2.5 mg/kg/day, 5 times a week, 9 weeks, compared to control mice; for tumor size growth, first tumor (tumor volume ratio): FIG. 4 (A); for tumor size growth, second tumor (volume): FIG. 4 (B)
Protocol: An animal experiment was performed using mice transplanted with cancer cells to test the therapeutic effects of the compounds according to the present invention on cancer.
A first tumor (DU145 cells) with Matrigel plug was implanted in the middle of the upper back of nude mice (BALB/c-slc-nu/nu mice).
Five weeks after the first implantation, a second tumor (DU145 cells) was implanted in the middle of the left and right sides of the back of the nude mice.
No compound was administered to a group of mice to prepare control mice.
The volume of the second tumor was so small and not measurable at the beginning of administration of each compound. Therefore, the result from the second tumor is expressed in volume (mm^3), but not in ratio.

[3] = tested on: NASH mice (methionine-choline-deficient diet); assay: NASH treatment study in MCDD-fed NASH mice, liver sections with Azan staining; format: in vivo, mice (C57BL/6J); conditions: NASH mice given a MCDD, 8 weeks; intraperitoneal 2.5 mg/kg/day three times a week; FIG. 3 (C)
Protocol: Next, an animal experiment was performed on NASH mice that were produced by feeding a methionine-choline-deficient diet (MCDD).

colon cancer model mice = assay: Colon cancer model mice (AOM/DSS) treatment study; format: in vivo; conditions: oral 1.25 mg/kg/day three times a week from Day 6, dissected on Day 89, versus control
Protocol: Colon cancer model mice were produced by intraperitoneal administration of azoxymethane (AOM) at a dose of 12 mg/kg to laboratory mice on Day 1, and then starting a course consisting of 5-day oral administration of 3% sodium dextran sulfate (DSS) and 16-day no DSS administration, on Day 6, and repeating the course 4 times, to induce colon inflammation and subsequent cancer development.
On Day 89, the colon cancer model mice were dissected to count the number of developed colon cancer tissues and to measure tumor area occupied by a single colon cancer tissue (total tumor area/tumor tissue number).

[4] = intraperitoneal 2.5 mg/kg/day or oral 5.0 mg/kg/day, three times a week

Compound	Pin1 inhibition activity (Pin1)	other results
COC(=O)[C@@H](Cc1ccc2ccccc2c1)NC(=O)Cn1c2ccccc2c2ccccc21 [Compound H-521]	+	
O=C1C=CC(=O)c2c(O)cccc21 [Juglone, reference compound]		colitis development [1]: prevention of colitis development; increase in liver weight ([2]; oral 5.0 mg/kg/day three times a week): significantly reduced
O=C(O)[C@@H](Cc1ccc2ccccc2c1)NC(=O)N1c2ccccc2CCc2ccccc21 [Compound H-178]	+++	
O=C(Nc1ccc(C(=O)c2ccccc2)cc1)N[C@H](Cc1ccc2ccccc2c1)C(=O)O [Compound H-341]	++	
O=C(Nc1ccccc1Oc1ccccc1)N[C@H](Cc1ccc2ccccc2c1)C(=O)O [Compound H-334]	+++	
O=C(Cc1ccc2ccccc2c1)N[C@H](Cc1ccc2ccccc2c1)C(=O)O [Compound H-158]	++	
O=C(CC1c2ccccc2-c2ccccc21)N[C@H](Cc1ccc2ccccc2c1)C(=O)O [Compound H-103]	+++	
O=C(O)[C@@H](Cc1ccc2ccccc2c1)NC(=O)N1c2ccccc2C=Cc2ccccc21 [Compound H-164]	+	
O=C(N[C@H](Cc1ccc2ccccc2c1)C(=O)OCc1ccccc1)C1c2ccccc2-c2ccccc21 [Compound H-105]	−	
O=C(N[C@H](Cc1ccc2ccccc2c1)C(=O)O)OCc1ccccc1 [Compound H-65, reference compound]	−	
O=C(O)[C@@H](Cc1ccc2ccccc2c1)NC(=O)N1c2ccccc2Oc2ccccc21 [Compound H-162]	++	
O=C(N[C@H](Cc1ccc2ccccc2c1)C(=O)O)C1c2ccccc2-c2ccccc21 [Compound H-109]	+++	
COC(=O)[C@@H](Cc1ccc2ccccc2c1)NC(=O)n1c2ccccc2c2ccccc21 [Compound H-144]		tumor size growth, first tumor (tumor volume ratio) (DU145 cells): suppressed; tumor size growth, second tumor (volume) (DU145 cells): suppressed; increase in liver weight [2, 4]: significantly reduced; blood ALT (GPT) value, index of liver inflammation [2, 4]: decreased
O=C(O)[C@@H](Cc1ccc2ccccc2c1)NC(=O)N(c1ccccc1)c1ccccc1 [Compound H-161]	++	
COC(=O)c1ccc2cc(C(=O)N[C@H](Cc3ccc4ccccc4c3)C(=O)O)ccc2c1 [Compound H-62]	+	
O=C(O)[C@@H](Cc1ccc2ccccc2c1)NC(=O)C1(O)c2ccccc2-c2ccccc21 [Compound H-101]	++	
O=C(O)[C@@H](Cc1ccc2ccccc2c1)NC(=O)n1c2ccccc2c2ccccc21 [Compound H-163]	++	fat accumulation in liver tissue (microscopic observation) [3]: significantly reduced fat accumulation; hepatic fibrosis (Azan staining) [3]: significantly inhibited; number of colon cancer tissues (colon cancer model mice): no significant difference; tumor area occupied by a single colon cancer tissue (colon cancer model mice; FIG. 5): reduction in tumor area; tumor size growth, first tumor (tumor volume ratio) (DU145 cells): suppressed; tumor size growth, second tumor (volume) (DU145 cells): suppressed; increase in liver weight [2, 4]: significantly reduced; blood ALT (GPT) value, index of liver inflammation [2, 4]: decreased; fat accumulation in liver tissue (microscopic observation) ([2]; NASH mice given a HFDT, FIG. 2 (C)): significantly reduced fat accumulation
O=C(Cn1c2ccccc2c2ccccc21)N[C@H](Cc1ccc2ccccc2c1)C(=O)O [Compound H-536]	+	
COc1ccc(-c2cc(C(=O)N[C@H](Cc3ccc4ccccc4c3)C(=O)O)c(C)o2)cc1 [Compound C1, (R)-2-(5-(4-methoxyphenyl)-2-methylfuran-3-carboxamido)-3-(naphthalene-6-yl)propanoic acid]		colitis development [1]: prevention of colitis development
